In data set [1] the target is T1, Recombinant truncated stromelysin (human sequence) (Homo sapiens, UniProt P08254).
T1 construct: made in house; host or cells: E. coli
Briefly: Determination of Stromelysin Inhibition. Type of data set: biochemical. The conditions noted are these: cleavage of thiopeptide ester substrate Ac-Pro-Leu-Gly-[2-mercapto-4-methyl-pentanoyl]-Leu-Gly-OEt, DTNB read at 405 nm, 30 minute assay at ambient temperature, 50 mM MES/NaOH 6.5. The protocol:
The efficacy of the compounds of this invention as matrix metalloproteinase inhibitors was determined by measuring the inhibition of stromelysin. The inhibition of stromelysin by the compounds of this invention was determined as follows: Recombinant truncated stromelysin (human sequence) produced in E. coli was prepared by expression and purification of the protein as described by Ye et al. (Biochemistry, 1992, 31, 11231-11235, which is incorporated herein by reference). The enzyme was assayed by its cleavage of the thiopeptide ester substrate Ac-Pro-Leu-Gly-[2-mercapto-4-methyl-pentanoyl]-Leu-Gly-OEt as described by Weingarten and Feder (Anal. Biochem., 1985, 147, 437-440 (1985), which is incorporated herein by reference) as a substrate of vertebrate collagenase. The reported conditions were modified to allow assays to be carried out in a microtiter plate. Upon hydrolysis of the thioester bond, the released thiol group reacted rapidly with 5,5′-dithio-bis(2-nitrobenzoic acid) (DTNB) to produce a yellow color which was measured by a microtiter plate reader set at 405 nm. The rates of cleavage of the substrate by stromelysin in the presence or absence of inhibitors were measured in a 30 minute assay at ambient temperature. Solutions of the compounds in DMSO were prepared, and these were diluted at various concentrations into the assay buffer (50 mM MES/NaOH 6.5 with 10 mM CaCl2 and 0.2% Pluronic F-68), which was also used for dilution of the enzyme and substrate. The potency of the compounds [IC50] was calculated from the inhibition/inhibitor concentration data.

The structures appear in SMILES notation.

T1 sequence (P08254 100-272 limits assumed): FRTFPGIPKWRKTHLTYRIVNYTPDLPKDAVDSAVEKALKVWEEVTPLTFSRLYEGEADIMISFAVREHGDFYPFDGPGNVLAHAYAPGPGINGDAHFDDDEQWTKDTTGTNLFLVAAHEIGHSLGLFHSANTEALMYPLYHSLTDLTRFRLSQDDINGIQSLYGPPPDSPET

`CN1C(=O)N(CC(COc2ccc(-c3ccc(C#N)cc3)cc2)N(O)C=O)C(=O)C1(C)C` (racemic) [Example 4, (±)-N-[1-[[(4′-cyano-[1,1′-biphenyl]-4-yl)oxy]methyl]-2-(3,4,4-trimethyl-2,5-dioxoimidazolidin-1-yl)ethyl]-N-hydroxyformamide] showed a melting point of 65 to 67 °C. For the same compound, the IC50 in data set [1] was determined as 9.1 nM.

In the case of `CN1C(=O)N(CCC(COc2ccc(-c3ccc(C#N)cc3)cc2)N(O)C=O)C(=O)C1(C)C` (racemic) [Example 5, (±)-N-[1-[[(4′-cyano-[1,1′-biphenyl]-4-yl)oxy]methyl]-3-(3,4,4-trimethyl-2,5-dioxoimidazolidiny-1-yl)propyl]-N-hydroxyformamide], the melting point was in the range of 68 to 70 °C. In addition, the IC50 in data set [1] turned out to be 17 nM.

With `CC(C)CC(COc1ccc(-c2ccc(C#N)cc2)cc1)N(O)C=O` (racemic) [Example 7, (±)-N-[1-[[(4′-cyano-[1,1′-biphenyl]-4-yl)oxy]methyl]-3-methylbutyl]-N-hydroxyformamide], the melting point was 112 to 113 °C. In addition, in data set [1], the IC50 was determined as 120 nM.

`CN1C(=O)N(CC(CS(=O)(=O)c2ccc(Oc3ccc(C(F)(F)F)cc3)cc2)N(O)C=O)C(=O)C1(C)C` (racemic) [Example 153, (±)-N-[1-[(2,5-dioxo-3,4,4-trimethyl-1-imidazolidinyl)methyl]-2-[[4-[4-(trifluoromethyl)phenoxy]phenyl]sulfonyl]ethyl]-N-hydroxyformamide] showed a melting point of 141 to 143 °C.

For the compound `O=CN(O)C(CS(=O)(=O)c1ccc(-c2ccc(OC(F)(F)F)cc2)cc1)c1ccccn1` (racemic) [Example 186, (±)-N-hydroxy-N-[1-(2-pyridinyl)-2-[[4′-(trifluoromethoxy)[1,1′-biphenyl]-4-yl]sulfonyl]ethyl]formamide], the melting point fell in the range of 116.4 to 117.6 °C.

The compound `N#Cc1ccc(-c2ccc(OCCN(O)C=O)cc2)cc1` [Example 15, N-[2-[(4′-cyano-[1,1′-biphenyl]-4-yl)oxy]ethyl]-N-hydroxyformamide] came in with a melting point of 142 to 145 °C.

The compound `CN1C(=O)N(CC(COc2ccc(-c3cccc(C#N)c3)cc2)N(O)C=O)C(=O)C1(C)C` (centres unmarked) [Example 39, N-[1-[[(3′-cyano[1,1′-biphenyl]-4-yl)oxy]methyl]-2-(3,4,4-trimethyl-2,5-dioxo-1-imidazolidinyl)ethyl]-N-hydroxyformamide] gave a melting point of 130 to 132 °C.

As to `CSc1ccc(-c2ccc(OCC(CN3C(=O)N(C)C(C)(C)C3=O)N(O)C=O)cc2)cc1` (centres unmarked) [Example 40, N-[1-[[[4′-(methylthio)[1,1′-biphenyl]-4-yl]oxy]methyl]-2-(3,4,4-trimethyl-2,5-dioxo-1-imidazolidinyl)ethyl]-N-hydroxyformamide], the melting point lay in the range of 172 to 174 °C.

`CC1(C)NC(=O)N(CCC(COc2ccc(-c3ccc(C#N)cc3)cc2)N(O)C=O)C1=O` (centres unmarked) [Example 47, N-[1-[[(4′-cyano[1,1′-biphenyl]-4-yl)oxy]methyl]-3-(4,4-dimethyl-2,5-dioxo-1-imidazolidinyl)propyl]-N-hydroxyformamide]: the melting point was 202 to 204 °C.

For `N#Cc1cccc(-c2ccc(OCC(CN3C(=O)CCC3=O)N(O)C=O)cc2)c1` (centres unmarked) [Example 49, N-[1-[[(3′-cyano[1,1′-biphenyl]-4-yl)oxy]methyl]-2-(2,5-dioxo-1-pyrrolidinyl)ethyl]-N-hydroxyformamide], the melting point is 128 °C.

As for `CC(CS(=O)(=O)c1ccc(-c2ccc(Cl)cc2)cc1)N(O)C=O` (centres unmarked) [Example 72, N-[1-[[(4′-chloro[1,1′-biphenyl]-4-yl)sulfonyl]methyl]ethyl]-N-hydroxyformamide], the melting point lay in the range of 178 to 180 °C.

In turn, `CC(CS(=O)(=O)c1ccc(-c2ccc3c(c2)OCO3)cc1)N(O)C=O` (centres unmarked) [Example 73, N-[1-[[[4-(1,3-benzodioxol-5-yl)phenyl]sulfonyl]methyl]ethyl]-N-hydroxyformamide] returned a melting point of 200 to 201 °C.

As to `CC(CS(=O)(=O)c1ccc(Oc2ccc(Cl)cc2)cc1)N(O)C=O` (centres unmarked) [Example 74, N-[1-[[[4-(4-chlorophenoxy)phenyl]sulfonyl]methyl]ethyl]-N-hydroxyformamide], the melting point is 144 to 145 °C.

For the compound `CCC(CS(=O)(=O)c1ccc(-c2ccc(OC)cc2)cc1)N(O)C=O` (centres unmarked) [Example 75, N-[1-[[(4′-methoxyl[1,1′-biphenyl]-4-yl)sulfonyl]methyl]propyl]-N-hydroxyformamide], the melting point lay within 199 to 200 °C.

For the compound `O=CN(O)C(COCc1ccccc1)CS(=O)(=O)c1ccc(-c2ccc(C(F)(F)F)cc2)cc1` (centres unmarked) [Example 77, N-[1-[(phenylmethoxy)methyl]-2-[[4′-(trifluoromethyl)[1,1′-biphenyl]-4-yl]sulfonyl]ethyl]-N-hydroxyformamide], the melting point stood at 172 °C.

`CN1C(=O)N(CC(COc2ccc(-c3ccc(S(N)(=O)=O)cc3)cc2)N(O)C=O)C(=O)C1(C)C` (centres unmarked) [Example 114, N-[1-[[[4′-(aminosulfonyl)[1,1′-biphenyl]-4-yl]oxy]methyl]-2-(3,4,4-trimethyl-2,5-dioxo-1-imidazolidinyl)ethyl]-N-hydroxyformamide] displayed a melting point of 203 to 205 °C.

The compound `CC1(C)NC(=O)N(CC(CS(=O)(=O)c2ccc(-c3ccc(OC(F)(F)F)cc3)cc2)N(O)C=O)C1=O` (centres unmarked) [Example 115, N-[1-[[[4′-(trifluoromethoxy)[1,1′-biphenyl]-4-yl]sulfonyl]methyl]-2-(4,4-dimethyl-2,5-dioxo-1-imidazolidinyl)ethyl]-N-hydroxyformamide] came in with a melting point of 195 to 197 °C.

Values taken from patent publication US20020007060A1, “Reverse hydroxamate inhibitors of matrix metalloproteinases” (priority 1998, published 2002).
